Reference: ChEMBL document CHEMBL1201862, “PubChem BioAssay data set” (2004)
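Protocol summary: plate cells (96-well), add compound at 5 concentrations, incubate 48 h, interpolate endpoints linearly. GI50 marks 50% less growth.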 Active and inactive are the calls of the source. No stated cut-off is given here; in the data, active = GI50 up to about 1.1 µM and inactive = higher.

Tests used:
Assay in all cases: NCI-60 cell line screen, 48 h
SNB-78 = test system: SNB-78
SNB-19 = test system: SNB-19
SN12C = test system: SN12C
HCC 2998 = test system: HCC 2998
HOP-18 = test system: HOP-18
SK-MEL-2 = test system: SK-MEL-2
DMS-273 = test system: DMS-273
UO-31 = test system: UO-31
CAKI-1 = test system: CAKI-1
OVCAR-3 = test system: OVCAR-3
KM12 = test system: KM12
SK-MEL-5 = test system: SK-MEL-5
A549 = test system: A549
LOX IMVI = test system: LOX IMVI
EKVX = test system: EKVX
SF-539 = test system: SF-539
HCT-15 = test system: HCT-15
A498 = test system: A498
SF-268 = test system: SF-268
OVCAR-8 = test system: OVCAR-8
U-251 = test system: U-251
NCI-H23 = test system: NCI-H23
CCRF-CEM = test system: CCRF-CEM
NCI-H226 = test system: NCI-H226
MOLT-4 = test system: MOLT-4
DMS-114 = test system: DMS-114
NCI/ADR-RES = test system: NCI/ADR-RES
SW-620 = test system: SW-620
M19-MEL = test system: M19-MEL
UACC-257 = test system: UACC-257
RPMI-8226 = test system: RPMI-8226
K562 = test system: K562
XF498 = test system: XF498
HOP-62 = test system: HOP-62
Malme-3M = test system: Malme-3M
DLD-1 = test system: DLD-1
HL-60 = test system: HL-60
UACC-62 = test system: UACC-62
SK-OV-3 = test system: SK-OV-3
OVCAR-4 = test system: OVCAR-4
IGROV-1 = test system: IGROV-1
MCF7 = test system: MCF7
HCT-116 = test system: HCT-116
RXF 393 = test system: RXF 393
SK-MEL-28 = test system: SK-MEL-28
SNB-75 = test system: SNB-75
NCI-H522 = test system: NCI-H522
NCI-H460 = test system: NCI-H460
SF-295 = test system: SF-295
OVCAR-5 = test system: OVCAR-5
HT-29 = test system: HT-29
KM-20L2 = test system: KM-20L2
COLO 205 = test system: COLO 205
HOP-92 = test system: HOP-92
ACHN = test system: ACHN
M14 = test system: M14
LXFL 529 = test system: LXFL 529
786-0 = test system: 786-0
TK-10 = test system: TK-10
SR = test system: SR

Measured: GI50

O=NN(CCCl)C(=O)N[C@H]1CC[C@@H](O)CC1
inactive: SNB-78 24.7 µM | SNB-19 51.2 µM | SN12C 36.6 µM | HCC 2998 81.5 µM | HOP-18 35.2 µM | SK-MEL-2 > 100 µM | DMS-273 34.8 µM | UO-31 72.4 µM | CAKI-1 27.5 µM | OVCAR-3 33.2 µM | KM12 67.5 µM | SK-MEL-5 52.4 µM | A549 81.3 µM | LOX IMVI 26.1 µM | EKVX 33.6 µM | SF-539 23.3 µM | A498 > 100 µM | SF-268 13.6 µM | OVCAR-8 33 µM | U-251 20.6 µM | NCI-H23 39.5 µM | CCRF-CEM 12.8 µM | NCI-H226 34.2 µM | MOLT-4 20.6 µM | DMS-114 20.7 µM | NCI/ADR-RES 23.3 µM | SW-620 22.6 µM | M19-MEL 27.9 µM | UACC-257 32.3 µM | RPMI-8226 14 µM | K562 23.6 µM | XF498 21.5 µM | HOP-62 46.3 µM | Malme-3M 24.8 µM | DLD-1 24.6 µM | HL-60 18.2 µM | UACC-62 13 µM | SK-OV-3 > 100 µM | OVCAR-4 60.4 µM | IGROV-1 68.4 µM | MCF7 31.6 µM | HCT-116 34 µM | RXF 393 23.9 µM | SK-MEL-28 25.3 µM | SNB-75 22.6 µM | NCI-H522 20.8 µM | NCI-H460 28.3 µM | SF-295 24 µM | OVCAR-5 > 100 µM | HT-29 60.3 µM | KM-20L2 > 100 µM | COLO 205 24.4 µM | HOP-92 8.43 µM
21.6 µM: HCT-15

N#C/C(=C1\SCC(=O)N1c1ccccc1)c1nc2ccccc2[nH]1
> 100 µM: HCT-15
inactive: SNB-78 > 100 µM | SNB-19 > 100 µM | SN12C > 100 µM | SK-MEL-2 > 100 µM | DMS-273 > 100 µM | UO-31 > 100 µM | CAKI-1 > 100 µM | OVCAR-3 > 100 µM | ACHN > 100 µM | SK-MEL-5 > 100 µM | A549 > 100 µM | LOX IMVI > 100 µM | EKVX > 100 µM | SF-539 > 100 µM | A498 > 100 µM | SF-268 > 100 µM | OVCAR-8 > 100 µM | U-251 > 100 µM | M14 > 100 µM | NCI-H23 > 100 µM | CCRF-CEM > 100 µM | LXFL 529 > 100 µM | NCI-H226 > 100 µM | MOLT-4 > 100 µM | DMS-114 > 100 µM | SW-620 > 100 µM | M19-MEL > 100 µM | UACC-257 > 100 µM | K562 > 100 µM | XF498 > 100 µM | HOP-62 > 100 µM | Malme-3M > 100 µM | DLD-1 > 100 µM | 786-0 > 100 µM | HL-60 > 100 µM | UACC-62 > 100 µM | TK-10 > 100 µM | SK-OV-3 > 100 µM | OVCAR-4 > 100 µM | IGROV-1 > 100 µM | HCT-116 > 100 µM | RXF 393 > 100 µM | SK-MEL-28 > 100 µM | SNB-75 > 100 µM | NCI-H522 > 100 µM | NCI-H460 > 100 µM | SF-295 > 100 µM | OVCAR-5 > 100 µM | HT-29 > 100 µM | KM-20L2 > 100 µM | COLO 205 > 100 µM | HOP-92 > 100 µM

O=C1[C@@H]2C3C=CC([C@H]4C(=O)N(CO)C(=O)[C@@H]34)[C@@H]2C(=O)N1CO
25.4 µM: HCT-15
inactive: SNB-78 > 100 µM | SNB-19 > 100 µM | SN12C > 57.5 µM | HCC 2998 > 70 µM | HOP-18 34 µM | SK-MEL-2 > 100 µM | DMS-273 > 42.7 µM | UO-31 > 65.3 µM | CAKI-1 > 100 µM | OVCAR-3 > 100 µM | KM12 > 64.7 µM | ACHN > 50.7 µM | SK-MEL-5 59 µM | A549 > 64 µM | LOX IMVI 42.1 µM | EKVX > 100 µM | SF-539 47.3 µM | A498 > 100 µM | SF-268 > 49.7 µM | OVCAR-8 35.6 µM | U-251 > 56.2 µM | M14 > 50.7 µM | NCI-H23 > 92.9 µM | CCRF-CEM 25.2 µM | LXFL 529 79.1 µM | NCI-H226 > 100 µM | MOLT-4 34 µM | DMS-114 32.1 µM | SW-620 26.1 µM | M19-MEL > 44.9 µM | UACC-257 > 100 µM | RPMI-8226 19.4 µM | K562 61.2 µM | XF498 > 100 µM | HOP-62 > 100 µM | Malme-3M > 100 µM | DLD-1 48.5 µM | 786-0 41.8 µM | HL-60 24.9 µM | UACC-62 > 76.2 µM | TK-10 > 100 µM | SK-OV-3 > 100 µM | OVCAR-4 > 75.5 µM | IGROV-1 > 100 µM | HCT-116 34.9 µM | RXF 393 > 55.1 µM | SK-MEL-28 > 63.5 µM | SNB-75 > 78.2 µM | NCI-H522 34.8 µM | NCI-H460 30.2 µM | SF-295 > 100 µM | OVCAR-5 > 100 µM | HT-29 62.8 µM | KM-20L2 > 31.6 µM | COLO 205 > 49.9 µM | HOP-92 > 78.2 µM

COC(=O)N/N=C(\C(=O)Nc1cccc([N+](=O)[O-])c1)c1nc2ccc([N+](=O)[O-])cc2nc1O
inactive: SNB-19 > 100 µM | SN12C > 100 µM | HCC 2998 33 µM | HOP-18 > 100 µM | UO-31 14.5 µM | OVCAR-3 49.8 µM | KM12 29.4 µM | ACHN 24.7 µM | SK-MEL-5 34 µM | A549 42.9 µM | LOX IMVI 18.6 µM | EKVX > 100 µM | SF-539 39.5 µM | SR > 100 µM | OVCAR-8 83.2 µM | M14 45.3 µM | NCI-H23 > 100 µM | CCRF-CEM > 100 µM | LXFL 529 27.7 µM | NCI-H226 > 100 µM | MOLT-4 52.7 µM | DMS-114 8.09 µM | SW-620 45.1 µM | M19-MEL 74.3 µM | UACC-257 > 100 µM | RPMI-8226 32.7 µM | K562 11.4 µM | HOP-62 26.4 µM | Malme-3M > 100 µM | DLD-1 > 100 µM | 786-0 53.1 µM | HL-60 > 100 µM | UACC-62 12.4 µM | TK-10 > 100 µM | SK-OV-3 > 100 µM | OVCAR-4 > 100 µM | IGROV-1 64.6 µM | HCT-116 61.7 µM | RXF 393 > 100 µM | SK-MEL-28 > 100 µM | SNB-75 85.7 µM | NCI-H522 3.47 µM | NCI-H460 57.5 µM | SF-295 > 100 µM | OVCAR-5 > 100 µM | HT-29 60.7 µM | KM-20L2 13.9 µM | COLO 205 37.1 µM | HOP-92 61.2 µM
active: SF-268 0.38 µM | XF498 0.494 µM

CCOc1ccc(NC(=O)C2=C(C)NC(C)=C(C(=O)Nc3ccc(OCC)cc3)C2c2ccc([N+](=O)[O-])cc2)cc1
inactive: SNB-78 34.1 µM | SNB-19 36 µM | SN12C 42.9 µM | HCC 2998 22.1 µM | SK-MEL-2 16.2 µM | UO-31 17.7 µM | CAKI-1 30 µM | OVCAR-3 30.3 µM | KM12 29.9 µM | ACHN 21.1 µM | SK-MEL-5 15.3 µM | A549 17.9 µM | LOX IMVI 42 µM | EKVX 29 µM | SF-539 24.3 µM | A498 6.32 µM | SF-268 27.4 µM | OVCAR-8 35 µM | U-251 27.8 µM | M14 23.7 µM | NCI-H23 28.2 µM | CCRF-CEM 13.3 µM | LXFL 529 22.1 µM | NCI-H226 26.8 µM | MOLT-4 7.1 µM | DMS-114 18.4 µM | SW-620 22.3 µM | M19-MEL 26.2 µM | UACC-257 39.2 µM | RPMI-8226 13.8 µM | K562 23.3 µM | XF498 25.3 µM | HOP-62 36.1 µM | Malme-3M 24.4 µM | DLD-1 25.9 µM | 786-0 29.3 µM | HL-60 18.3 µM | TK-10 17.9 µM | SK-OV-3 > 100 µM | OVCAR-4 9.29 µM | IGROV-1 49 µM | RXF 393 14 µM | SK-MEL-28 34.2 µM | SNB-75 29.4 µM | NCI-H522 22.6 µM | NCI-H460 22.9 µM | SF-295 38 µM | OVCAR-5 31.8 µM | HT-29 33.9 µM | KM-20L2 20 µM | COLO 205 17.8 µM | HOP-92 12.9 µM
